The values below come from patent US20060100280A1, “Cell growth regulator” (Chugai Seiyaku Kabushiki Kaisha, priority 2002, published 2006).

Assay [1] concerns human colon cancer cell line SW60. Kind of assay: Cell growth test, MTS assay, SW60. The conditions noted are these: SW60, surviving cell count by MTS on fourth day of culturing. Format: cell-based. How it is done:
(§1) Accordingly, L-2-phenylglycine is considered to be a competitive inhibitor with strong specificity to ATB^0,+ (Hatanaka et al. 2002, J. Pharm. Pharmacol.). The present inventors prepared 20 mM L-2-phenylglycine solution by dissolving L-2-phenylglycine in a medium containing 0% FBS. IMDM was used as the medium for SW60 and HT29; and RPMI was used for MCF-7. This solution was diluted with the medium to prepare L-2-phenylglycine solutions of 2, 0.2, 0.02, and 0.002 mM.
(§2) Human colon cancer cell lines SW60 and HT29, and breast cancer cell line MCF-7 were prepared with medium to form 4×10^6, 1.6×10^6, and 1.6×10^6 cells/mL, respectively. 25 μL/well of the suspensions thus obtained (1×10^5, […], respectively) were plated onto a 96-well plate, which already contained 25 μL/well of medium comprising 12% FBS. 50 μL of L-2-phenylglycine solution was then added to each well. The cells were cultured in a 5% CO2 incubator, and surviving cell count was quantified by MTS assay on the fourth day of culturing.

Assay [2] has as its system human colon cancer cell line HT29. In words: Cell growth test, MTS assay, HT29. The format is cell-based. As to the method:
as §1, §2
A general note: Tetrazolium assays rely on reduction of a dye to a coloured formazan, in cell work by metabolically active cells.

The test system of assay [3] is breast cancer cell line MCF-7. Kind of assay: Cell growth test, MTS assay, MCF-7. Format: cell-based, human. How it is done:
as §1, §2

The next assay has as its target T1, ATB^0,+ (Canis lupus familiaris, UniProt A0A8I3P2T9).
T1 construct: from tissue; host or cells: canine small intestinal brush border membrane (finding quoted from Hatanaka et al. 2002, J. Pharm. Pharmacol.)
T1 sequence (A0A8I3P2T9 1-639): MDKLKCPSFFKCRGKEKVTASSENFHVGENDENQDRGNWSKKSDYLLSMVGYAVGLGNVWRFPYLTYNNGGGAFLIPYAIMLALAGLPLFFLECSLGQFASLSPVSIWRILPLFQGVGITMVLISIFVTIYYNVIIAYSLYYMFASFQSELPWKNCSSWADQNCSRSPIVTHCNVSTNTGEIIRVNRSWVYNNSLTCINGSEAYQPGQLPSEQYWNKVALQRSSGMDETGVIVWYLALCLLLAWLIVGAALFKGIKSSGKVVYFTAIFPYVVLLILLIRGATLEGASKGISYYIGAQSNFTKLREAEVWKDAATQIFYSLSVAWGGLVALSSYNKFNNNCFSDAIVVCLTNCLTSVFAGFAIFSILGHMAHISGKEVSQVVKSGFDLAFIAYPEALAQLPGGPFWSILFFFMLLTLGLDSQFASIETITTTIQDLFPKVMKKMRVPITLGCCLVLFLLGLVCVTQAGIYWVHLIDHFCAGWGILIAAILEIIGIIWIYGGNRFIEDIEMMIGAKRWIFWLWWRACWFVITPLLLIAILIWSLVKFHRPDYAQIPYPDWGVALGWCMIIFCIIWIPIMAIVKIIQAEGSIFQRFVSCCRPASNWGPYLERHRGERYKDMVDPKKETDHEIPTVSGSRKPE
To be noted: canine small intestinal brush border membrane; Hatanaka et al. 2002, J. Pharm. Pharmacol.; cited from earlier work.

`N[C@H](C(=O)O)c1ccccc1` [L-2-phenylglycine]: the Cell growth suppression result in assay [1] is on record as “could not be observed”; in assay [2] (HT29, in the presence of 10 μM, reached equilibrium, MTS on fourth day) it was “approximately 10%”; in assay [2] (HT29, surviving cell count by MTS on fourth day of culturing), “concentration-dependent cell growth suppression was observed”; in assay [3] (MCF-7, in the presence of 1 mM, MTS on fourth day), “approximately 10%”; in assay [3] (MCF-7, surviving cell count by MTS on fourth day of culturing), “concentration-dependent cell growth suppression was observed”. Also, on ATB^0,+, the “Affinity compared with L-alanine and L-phenylalanine” value is “stronger affinity”.
